From ChEMBL document CHEMBL4392857, “Isolation, Chiral-Phase Resolution, and Determination of the Absolute Configurations of a Complete Series of Stereoisomers of a Rearranged Acetophenone with Three Stereocenters” (2019)

Tests used:
[1] = system: HUVEC; test: Cytoprotective effect against high glucose-induced oxidative stress in HUVEC assessed as cell viability at 5 uM incubated by MTT assay (reference value: 72.1 to 77.9%); format: functional; details: Homo sapiens, read-out: Activity
[2] = system: HUVEC; test: Cytoprotective effect against high glucose-induced oxidative stress in HUVEC assessed as cell viability at 1 uM incubated by MTT assay (reference value: 72.1 to 77.9%); format: functional; details: Homo sapiens, read-out: Activity

| Structure (SMILES) | viability at 5 µM [1] | viability at 1 µM [2] |
| --- | --- | --- |
| COC(=O)[C@@]1(O)C(=O)[C@@]2(CC=C(C)C)C[C@H](O)C(C)(C)OC2=C1C(C)=O | 82% | 79.9% |
| COC(=O)[C@@]1(O)C(=O)[C@@]2(CC=C(C)C)C[C@@H](O)C(C)(C)OC2=C1C(C)=O | 101% | 101% |
| COC(=O)[C@]1(O)C(=O)[C@]2(CC=C(C)C)C[C@@H](O)C(C)(C)OC2=C1C(C)=O | 104% | 103% |
| COC(=O)[C@@]1(O)C(=O)[C@]2(CC=C(C)C)C[C@@H](O)C(C)(C)OC2=C1C(C)=O | 62.7% | 75.6% |
| COC(=O)[C@@]1(O)C(=O)[C@]2(CC=C(C)C)C[C@H](O)C(C)(C)OC2=C1C(C)=O | 104% | 103% |
| COC(=O)[C@]1(O)C(=O)[C@@]2(CC=C(C)C)C[C@@H](O)C(C)(C)OC2=C1C(C)=O | 82% | 79.9% |
| COC(=O)[C@]1(O)C(=O)[C@]2(CC=C(C)C)C[C@H](O)C(C)(C)OC2=C1C(C)=O | 93% | 94.2% |
| COC(=O)[C@]1(O)C(=O)[C@@]2(CC=C(C)C)C[C@H](O)C(C)(C)OC2=C1C(C)=O | 65.1% | 71.7% |
| Oc1ccc(/C=C/c2cc(O)cc(O)c2)cc1 [RESVERATROL] | 103% | 86.4% |
